ChEMBL document CHEMBL3885881, “DrugMatrix”

Organism: Rattus norvegicus
Assay: DrugMatrix - Regimen: Daily Repeat
Assay type: toxicity, organism-based, Sprague-Dawley
Parameters: regimen Daily Repeat, gender Male, age 6-8 weeks
Settings: in vivo, po, route oral GAVAGE, vehicle .5 % CMC; for BASOPHIL / EOSINOPHIL / ERYTHROCYTE COUNT / HEMATOCRIT / HEMOGLOBIN / LEUKOCYTE COUNT / LYMPHOCYTE / MEAN CORPUSCULAR HEMOGLOBIN / MEAN CORPUSCULAR HEMOGLOBIN CONCENTRATION / MEAN CORPUSCULAR VOLUME / MONOCYTE / NEUTROPHIL / PLATELET COUNT: tissue Blood; for ALANINE AMINOTRANSFERASE / ALBUMIN / ALKALINE PHOSPHATASE / ASPARTATE AMINOTRANSFERASE / BLOOD UREA NITROGEN / CHLORIDE / CHOLESTEROL / CREATINE PHOSPHOKINASE / CREATININE / GLUCOSE / PHOSPHORUS / POTASSIUM / SODIUM / TOTAL BILIRUBIN / TOTAL PROTEIN: tissue Plasma
[1] = 40 mg/kg, 72 h, dose level Low, time 3 day
[2] = 40 mg/kg, 120 h, dose level Low, time 5 day
[3] = 99 mg/kg, 72 h, dose level High, time 3 day
[4] = 99 mg/kg, 120 h, dose level High, time 5 day

**Q.** What does the source list for CO[C@H]1/C=C/O[C@@]2(C)Oc3c(C)c(O)c4c(O)c(c(/C=N/N5CCN(C)CC5)c(O)c4c3C2=O)NC(=O)/C(C)=C\C=C\[C@H](C)[C@H](O)[C@@H](C)[C@@H](O)[C@@H](C)[C@H](OC(C)=O)[C@@H]1C [RIFAMPIN]?
**A.** BASOPHIL [1]: 0%; EOSINOPHIL [1]: 0%; ERYTHROCYTE COUNT [1]: 6.01 x10E6/uL; HEMATOCRIT [1]: 36.73%; HEMOGLOBIN [1]: 14.33 G/DL; LEUKOCYTE COUNT [1]: 9.07 x10E3/uL; LYMPHOCYTE [1]: 88%; MEAN CORPUSCULAR HEMOGLOBIN [1]: 23.83 pg; MEAN CORPUSCULAR HEMOGLOBIN CONCENTRATION [1]: 39.03 G/DL; MEAN CORPUSCULAR VOLUME [1]: 61.1 fL; MONOCYTE [1]: 2.33%; NEUTROPHIL [1]: 9.67%; PLATELET COUNT [1]: 1111.33 x10E3/uL; ALANINE AMINOTRANSFERASE [1]: 36 u/L; ALBUMIN [1]: 3.6 G/DL; ALKALINE PHOSPHATASE [1]: 274 u/L; ASPARTATE AMINOTRANSFERASE [1]: 60 u/L; BLOOD UREA NITROGEN [1]: 9 mg/dL; CHLORIDE [1]: 108 MEQ/L; CHOLESTEROL [1]: 63.33 mg/dL; CREATINE PHOSPHOKINASE [1]: 115.33 u/L; CREATININE [1]: 0.43 mg/dL; GLUCOSE [1]: 170.33 mg/dL; PHOSPHORUS [1]: 11.3 mg/dL; POTASSIUM [1]: 6.6 MEQ/L; SODIUM [1]: 152.67 MEQ/L; TOTAL BILIRUBIN [1]: 0.33 mg/dL; TOTAL PROTEIN [1]: 5.73 G/DL; BASOPHIL [2]: 0%; EOSINOPHIL [2]: 0%; ERYTHROCYTE COUNT [2]: 6.22 x10E6/uL; HEMATOCRIT [2]: 36.5%; HEMOGLOBIN [2]: 14.57 G/DL; LEUKOCYTE COUNT [2]: 14.23 x10E3/uL; LYMPHOCYTE [2]: 89.33%; MEAN CORPUSCULAR HEMOGLOBIN [2]: 23.47 pg; MEAN CORPUSCULAR HEMOGLOBIN CONCENTRATION [2]: 39.93 G/DL; MEAN CORPUSCULAR VOLUME [2]: 58.8 fL; MONOCYTE [2]: 2.67%; NEUTROPHIL [2]: 8%; PLATELET COUNT [2]: 1082.67 x10E3/uL; ALANINE AMINOTRANSFERASE [2]: 42.33 u/L; ALBUMIN [2]: 3.7 G/DL; ALKALINE PHOSPHATASE [2]: 325 u/L; ASPARTATE AMINOTRANSFERASE [2]: 62.67 u/L; BLOOD UREA NITROGEN [2]: 13.67 mg/dL; CHLORIDE [2]: 107.33 MEQ/L; CHOLESTEROL [2]: 78.33 mg/dL; CREATINE PHOSPHOKINASE [2]: 142 u/L; CREATININE [2]: 0.57 mg/dL; GLUCOSE [2]: 180.33 mg/dL; PHOSPHORUS [2]: 10.97 mg/dL; POTASSIUM [2]: 6.63 MEQ/L; SODIUM [2]: 150.33 MEQ/L; TOTAL BILIRUBIN [2]: 0.3 mg/dL; TOTAL PROTEIN [2]: 6.03 G/DL; BASOPHIL [3]: 0%; EOSINOPHIL [3]: 0.33%; ERYTHROCYTE COUNT [3]: 5.7 x10E6/uL; HEMATOCRIT [3]: 35.03%; HEMOGLOBIN [3]: 13.93 G/DL; LEUKOCYTE COUNT [3]: 12.7 x10E3/uL; LYMPHOCYTE [3]: 89%; MEAN CORPUSCULAR HEMOGLOBIN [3]: 24.47 pg; MEAN CORPUSCULAR HEMOGLOBIN CONCENTRATION [3]: 39.77 G/DL; MEAN CORPUSCULAR VOLUME [3]: 61.5 fL; MONOCYTE [3]: 2%; NEUTROPHIL [3]: 8.67%; PLATELET COUNT [3]: 1047.33 x10E3/uL; ALANINE AMINOTRANSFERASE [3]: 41 u/L; ALBUMIN [3]: 3.8 G/DL; ALKALINE PHOSPHATASE [3]: 360.33 u/L; ASPARTATE AMINOTRANSFERASE [3]: 60 u/L; BLOOD UREA NITROGEN [3]: 10.67 mg/dL; CHLORIDE [3]: 106.67 MEQ/L; CHOLESTEROL [3]: 93.67 mg/dL; CREATINE PHOSPHOKINASE [3]: 139 u/L; CREATININE [3]: 0.43 mg/dL; GLUCOSE [3]: 166.33 mg/dL; PHOSPHORUS [3]: 11.6 mg/dL; POTASSIUM [3]: 6.4 MEQ/L; SODIUM [3]: 153 MEQ/L; TOTAL BILIRUBIN [3]: 0.3 mg/dL; TOTAL PROTEIN [3]: 6.1 G/DL; BASOPHIL [4]: 0%; EOSINOPHIL [4]: 0.33%; ERYTHROCYTE COUNT [4]: 5.79 x10E6/uL; HEMATOCRIT [4]: 34.87%; HEMOGLOBIN [4]: 13.73 G/DL; LEUKOCYTE COUNT [4]: 17.13 x10E3/uL; LYMPHOCYTE [4]: 85%; MEAN CORPUSCULAR HEMOGLOBIN [4]: 23.73 pg; MEAN CORPUSCULAR HEMOGLOBIN CONCENTRATION [4]: 39.4 G/DL; MEAN CORPUSCULAR VOLUME [4]: 60.23 fL; MONOCYTE [4]: 2%; NEUTROPHIL [4]: 12.67%; PLATELET COUNT [4]: 1010.67 x10E3/uL; ALANINE AMINOTRANSFERASE [4]: 46 u/L; ALBUMIN [4]: 3.6 G/DL; ALKALINE PHOSPHATASE [4]: 384.33 u/L; ASPARTATE AMINOTRANSFERASE [4]: 64.33 u/L; BLOOD UREA NITROGEN [4]: 11.33 mg/dL; CHLORIDE [4]: 108.33 MEQ/L; CHOLESTEROL [4]: 75 mg/dL; CREATINE PHOSPHOKINASE [4]: 143 u/L; CREATININE [4]: 0.5 mg/dL; GLUCOSE [4]: 177.67 mg/dL; PHOSPHORUS [4]: 11.1 mg/dL; POTASSIUM [4]: 6.3 MEQ/L; SODIUM [4]: 149.33 MEQ/L; TOTAL BILIRUBIN [4]: 0.37 mg/dL; TOTAL PROTEIN [4]: 5.67 G/DL
